In PubChem BioAssay AID248 (DTP/NCI, 2004):
Values joined by “and” are separate entries in the source; they are usually repeats but may differ in a detail not shown here. Equal entries are not always repeated. Inconclusive results and toxic doses are left out. Cut-off read from the data, not from the text of the source: active = T/C of 150% or more; inactive = T/C below 125%.

Test system: L1210 leukemia ip in BDF1 mice, survival T/C
Assay: NCI In Vivo Anticancer Drug Screen. Data for tumor model L1210 Leukemia (intraperitoneal) in B6D2F1 (BDF1) mice
Conditions: endpoint: mean survival time, higher = longer survival
How it was run: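 Survival endpoint. Drug-treated group vs vehicle group, expressed as T divided by C. Tumor passaged by transplantation.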

[1] = dose: 100.0 mg/kg/injection, schedule: Q04DX003 (ip), vehicle: other
[2] = dose: 200.0 mg/kg/injection, schedule: Q04DX003 (ip), vehicle: other
[3] = dose: 400.0 mg/kg/injection, schedule: Q04DX003 (ip), vehicle: other
[4] = dose: 100.0 mg/kg/injection, schedule: Q01DX009 (ip), vehicle: saline with Tween-80
[5] = dose: 200.0 mg/kg/injection, schedule: Q01DX009 (ip), vehicle: saline with Tween-80
[6] = dose: 400.0 mg/kg/injection, schedule: Q01DX009 (ip), vehicle: saline with Tween-80
[7] = dose: 100.0 mg/kg/injection, schedule: Q01DX009 (ip), vehicle: Klucel (hydroxypropylcellulose) (HPC)
[8] = dose: 200.0 mg/kg/injection, schedule: Q01DX009 (ip), vehicle: Klucel (hydroxypropylcellulose) (HPC)
[9] = dose: 400.0 mg/kg/injection, schedule: Q01DX009 (ip), vehicle: Klucel (hydroxypropylcellulose) (HPC)
[10] = dose: 100.0 mg/kg/injection, schedule: Q04DX003 (ip), vehicle: Klucel (hydroxypropylcellulose) (HPC)
[11] = dose: 200.0 mg/kg/injection, schedule: Q04DX003 (ip), vehicle: Klucel (hydroxypropylcellulose) (HPC)
[12] = dose: 400.0 mg/kg/injection, schedule: Q04DX003 (ip), vehicle: Klucel (hydroxypropylcellulose) (HPC)
[13] = dose: 100.0 mg/kg/injection, schedule: Q01DX001 (ip), vehicle: saline
[14] = dose: 200.0 mg/kg/injection, schedule: Q01DX001 (ip), vehicle: saline
[15] = dose: 400.0 mg/kg/injection, schedule: Q01DX001 (ip), vehicle: saline
[16] = dose: 100.0 mg/kg/injection, schedule: Q04DX003 (ip), vehicle: saline with Tween-80
[17] = dose: 200.0 mg/kg/injection, schedule: Q04DX003 (ip), vehicle: saline with Tween-80
[18] = dose: 400.0 mg/kg/injection, schedule: Q04DX003 (ip), vehicle: saline with Tween-80
[19] = dose: 100.0 mg/kg/injection, schedule: Q04DX003 (ip), vehicle: saline
[20] = dose: 100.0 mg/kg/injection, schedule: Q01DX009 (ip), vehicle: saline
[21] = dose: 200.0 mg/kg/injection, schedule: Q01DX009 (ip), vehicle: saline
[22] = dose: 400.0 mg/kg/injection, schedule: Q01DX009 (ip), vehicle: saline
[23] = dose: 100.0 mg/kg/injection, schedule: Q01DX001 (ip), vehicle: other
[24] = dose: 200.0 mg/kg/injection, schedule: Q01DX001 (ip), vehicle: other

Measured: T/C

CCC(C(O)c1ccccc1)[N+](=O)[O-] (stereo not drawn)
inactive: [1] 100 % of control | [2] 100 % of control | [3] 96 % of control

COc1cc(OC)cc(C(=O)Cl)c1
inactive: [4] 100 % of control | [5] 103 % of control | [6] 86 % of control

CCCCOP(=S)(Cc1ccccc1)OCCCC
inactive: [7] 104 % of control | [8] 104 % of control | [9] 104 % of control

c1ccc(Oc2ccccn2)cc1
inactive: dose: 50.0 mg/kg/injection, schedule: Q04DX003 (ip), vehicle: Klucel (hydroxypropylcellulose) (HPC) 91 % of control | [10] 94 % of control | [11] 94 % of control | [12] 97 % of control

Ic1cccc(/C=N/Nc2nnc(N/N=C/c3cccc(I)c3)c3ccccc23)c1
inactive: dose: 50.0 mg/kg/injection, schedule: Q01DX001 (ip), vehicle: saline 102 % of control | [13] 102 % of control | [14] 102 % of control | [15] 108 % of control

CC(=O)OC(C(N)=O)C(OC(C)=O)C(=O)O (stereo not drawn)
inactive: dose: 100.0 mg/kg/injection, schedule: Q04DX003 (ip), vehicle: water 96 % of control | dose: 200.0 mg/kg/injection, schedule: Q04DX003 (ip), vehicle: water 100 % of control | dose: 400.0 mg/kg/injection, schedule: Q04DX003 (ip), vehicle: water 97 % of control

CNc1ccc(C(=O)O)cc1OC
inactive: [4] 95 % of control | [5] 91 % of control | [6] 88 % of control

NC(N)=Nc1ccc(Cc2ccc(N=C(N)N)cc2)cc1
inactive: dose: 12.5 mg/kg/injection, schedule: Q01DX Z (oral), vehicle: saline 105 % of control | dose: 25.0 mg/kg/injection, schedule: Q01DX Z (oral), vehicle: saline 103 % of control | dose: 50.0 mg/kg/injection, schedule: Q01DX Z (oral), vehicle: saline 94 % of control | dose: 100.0 mg/kg/injection, schedule: Q01DX Z (oral), vehicle: saline 93 % of control

CCCCCCCCCCCCCCCC(=O)Oc1ccc(/C(CC)=C(/CC)c2ccc(OC(=O)CCCCCCCCCCCCCCC)cc2)cc1
inactive: [16] 89 % of control | [5] 91 % of control | [17] 100 % of control | [6] 91 % of control | [18] 89 % of control

Cc1cc(Cl)ccc1NC(=O)Nc1ccccc1F
inactive: [7] 100 % of control | [8] 96 % of control | [9] 94 % of control

CC(C)C(C(=O)O)N1C(=O)C2C3CCC(O3)C2C1=O (stereo not drawn)
inactive: [19] 98 % of control and 102 % of control | dose: 200.0 mg/kg/injection, schedule: Q04DX003 (ip), vehicle: saline 98 % of control and 89 % of control | dose: 400.0 mg/kg/injection, schedule: Q04DX003 (ip), vehicle: saline 98 % of control and 103 % of control

CCCCC(=O)N1CCC(C)CC1
inactive: dose: 100.0 mg/kg/injection, schedule: Q04DX002 (ip), vehicle: saline 98 % of control | dose: 200.0 mg/kg/injection, schedule: Q04DX002 (ip), vehicle: saline 91 % of control

CC(=O)Nc1onc(C)c1[N+](=O)[O-]
inactive: [20] 101 % of control | [1] 91 % of control | [21] 98 % of control and 91 % of control | [2] 92 % of control | [22] 94 % of control and 86 % of control | [3] 94 % of control

O=[N+]([O-])c1ccc(N2CCCCC2)c([N+](=O)[O-])c1
inactive: dose: 25.0 mg/kg/injection, schedule: Q01DX009 (ip), vehicle: saline 96 % of control | dose: 50.0 mg/kg/injection, schedule: Q01DX009 (ip), vehicle: saline 102 % of control | [20] 96 % of control | [21] 98 % of control | [22] 96 % of control

CC1CC(C)(C)CC2(C1)OCC(CCl)O2 (stereo not drawn)
inactive: dose: 100.0 mg/kg/injection, schedule: Q04DX003 (ip), vehicle: saline sonified 100 % of control | dose: 200.0 mg/kg/injection, schedule: Q04DX003 (ip), vehicle: saline sonified 98 % of control | dose: 400.0 mg/kg/injection, schedule: Q04DX003 (ip), vehicle: saline sonified 96 % of control

O=[N+]([O-])c1ccc(N2CCCCC2)cc1
inactive: [23] 108 % of control | [10] 107 % of control | [24] 90 % of control | [11] 104 % of control | dose: 222.0 mg/kg/injection, schedule: Q01DX Z (ip), vehicle: methylcellulose (MC) 102 % of control | dose: 333.0 mg/kg/injection, schedule: Q01DX Z (ip), vehicle: methylcellulose (MC) 94 % of control | dose: 400.0 mg/kg/injection, schedule: Q01DX001 (ip), vehicle: other 103 % of control | [12] 107 % of control | dose: 500.0 mg/kg/injection, schedule: Q01DX Z (ip), vehicle: methylcellulose (MC) 100 % of control

CCCCCCC(=O)/C=C\c1ccccc1
inactive: dose: 100.0 mg/kg/injection, schedule: Q01DX001 (sc), vehicle: other 94 % of control | dose: 200.0 mg/kg/injection, schedule: Q01DX001 (sc), vehicle: other 91 % of control | dose: 400.0 mg/kg/injection, schedule: Q01DX001 (sc), vehicle: other 100 % of control

CCc1c(CBr)c(=O)[nH]c2ccccc12
inactive: [23] 96 % of control

Cc1ncc(CO)c(/C=N/OCc2nnc(Nc3ccccc3)s2)c1O
inactive: [16] 92 % of control | [17] 101 % of control | [18] 106 % of control

COc1ccc(C(=O)C(C)C(C)=N)c(OCc2ccccc2)c1OC (stereo not drawn)
inactive: dose: 100.0 mg/kg/injection, schedule: Q01DX001 (ip), vehicle: carboxymethylcellulose (CMC) 95 % of control | dose: 200.0 mg/kg/injection, schedule: Q01DX001 (ip), vehicle: carboxymethylcellulose (CMC) 92 % of control | dose: 400.0 mg/kg/injection, schedule: Q01DX001 (ip), vehicle: carboxymethylcellulose (CMC) 92 % of control

O=Nc1c(N=O)c(N=O)c(N=O)c(N=O)c1N=O
inactive: dose: 1.0 mg/kg/injection, schedule: Q01DX015 (ip), vehicle: carboxymethylcellulose (CMC) 101 % of control | dose: 2.0 mg/kg/injection, schedule: Q01DX015 (ip), vehicle: carboxymethylcellulose (CMC) 92 % of control | dose: 4.0 mg/kg/injection, schedule: Q01DX015 (ip), vehicle: carboxymethylcellulose (CMC) 102 % of control | dose: 8.0 mg/kg/injection, schedule: Q01DX015 (ip), vehicle: carboxymethylcellulose (CMC) 91 % of control | dose: 25.0 mg/kg/injection, schedule: Q04DX003 (ip), vehicle: saline 101 % of control | dose: 50.0 mg/kg/injection, schedule: Q04DX003 (ip), vehicle: saline 90 % of control | [13] 107 % of control | [19] 90 % of control | [14] 100 % of control | [15] 100 % of control

CCc1cc2oc(C)c(C)c2c2nc(C)oc12
inactive: dose: 50.0 mg/kg/injection, schedule: Q04DX002 (ip), vehicle: Klucel (hydroxypropylcellulose) (HPC) 101 % of control | dose: 100.0 mg/kg/injection, schedule: Q04DX002 (ip), vehicle: Klucel (hydroxypropylcellulose) (HPC) 99 % of control and 104 % of control | dose: 200.0 mg/kg/injection, schedule: Q04DX002 (ip), vehicle: Klucel (hydroxypropylcellulose) (HPC) 101 % of control | dose: 400.0 mg/kg/injection, schedule: Q04DX002 (ip), vehicle: Klucel (hydroxypropylcellulose) (HPC) 96 % of control

Cc1ccc2c(c1)C=C/C(=C/c1cc[n+](C)c3ccccc13)N2C
inactive: [23] 97 % of control | [24] 92 % of control

Oc1ccc2[nH]c3c(c2c1)C[P+](Cc1cccc2ccccc12)(c1ccccc1)CC3 (stereo not drawn)
inactive: dose: 100.0 mg/kg/injection, schedule: Q01DX001 (ip), vehicle: Klucel (hydroxypropylcellulose) (HPC) 98 % of control | dose: 200.0 mg/kg/injection, schedule: Q01DX001 (ip), vehicle: Klucel (hydroxypropylcellulose) (HPC) 93 % of control | dose: 400.0 mg/kg/injection, schedule: Q01DX001 (ip), vehicle: Klucel (hydroxypropylcellulose) (HPC) 96 % of control

COc1ccc(O)c(/C=N\Nc2ccccc2)c1
inactive: [7] 89 % of control | [10] 96 % of control | [8] 91 % of control | [11] 94 % of control | [9] 86 % of control | [12] 92 % of control
